Legend:
[1] = target: T1, cSrc (Homo sapiens, UniProt P12931); experiment: Kinase panel screen; type: biochemical; conditions: Compound I and ATP 10 μM
T1 construct: purchased Upstate USA or Invitrogen (commercial screening service)

[2] = target: T2, PAR-1Ba (Homo sapiens, UniProt Q7KZI7); experiment: Kinase panel screen; type: biochemical; conditions: Compound I and ATP 10 μM
T2 construct: purchased Upstate USA or Invitrogen (commercial screening service)

[3] = target: T3, PKCy (Homo sapiens, UniProt P05129); experiment: Kinase panel screen; type: biochemical; conditions: Compound I and ATP 10 μM
T3 construct: purchased Upstate USA or Invitrogen (commercial screening service)

[4] = target: T4, CDK5 (Homo sapiens, UniProt Q00535); experiment: Kinase panel screen; type: biochemical; conditions: Compound I and ATP 10 μM
T4 construct: purchased Upstate USA or Invitrogen (commercial screening service)

[5] = target: T5, PKCi (Homo sapiens, UniProt P41743); experiment: Kinase panel screen; type: biochemical; conditions: Compound I and ATP 10 μM
T5 construct: purchased Upstate USA or Invitrogen (commercial screening service)

[6] = target: T6, PKC8 (Homo sapiens, UniProt Q05655); experiment: Kinase panel screen; type: biochemical; conditions: Compound I and ATP 10 μM
T6 construct: purchased Upstate USA or Invitrogen (commercial screening service)
T6 sequence (Q05655 whole entry): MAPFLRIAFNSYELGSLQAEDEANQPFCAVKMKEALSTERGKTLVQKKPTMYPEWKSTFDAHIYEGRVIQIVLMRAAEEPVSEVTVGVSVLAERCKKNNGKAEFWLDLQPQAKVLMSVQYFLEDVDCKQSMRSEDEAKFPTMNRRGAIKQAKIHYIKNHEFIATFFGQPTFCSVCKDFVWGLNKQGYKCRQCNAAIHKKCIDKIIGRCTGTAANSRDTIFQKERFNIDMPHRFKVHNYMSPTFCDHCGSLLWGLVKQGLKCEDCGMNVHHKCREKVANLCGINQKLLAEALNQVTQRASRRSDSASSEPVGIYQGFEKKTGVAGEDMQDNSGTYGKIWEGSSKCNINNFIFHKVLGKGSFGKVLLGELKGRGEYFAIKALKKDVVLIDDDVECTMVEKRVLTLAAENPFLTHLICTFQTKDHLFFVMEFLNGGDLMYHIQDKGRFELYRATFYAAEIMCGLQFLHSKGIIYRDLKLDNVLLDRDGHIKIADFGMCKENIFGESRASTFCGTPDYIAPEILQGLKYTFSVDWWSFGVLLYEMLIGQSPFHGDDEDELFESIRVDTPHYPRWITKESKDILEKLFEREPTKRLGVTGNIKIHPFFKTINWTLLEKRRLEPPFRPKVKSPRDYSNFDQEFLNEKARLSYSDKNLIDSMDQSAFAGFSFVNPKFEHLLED

[7] = target: T7, Bmx (Homo sapiens, UniProt P51813); experiment: Kinase panel screen; type: biochemical; conditions: Compound I and ATP 10 μM
T7 construct: purchased Upstate USA or Invitrogen (commercial screening service)
T7 sequence (P51813 whole entry): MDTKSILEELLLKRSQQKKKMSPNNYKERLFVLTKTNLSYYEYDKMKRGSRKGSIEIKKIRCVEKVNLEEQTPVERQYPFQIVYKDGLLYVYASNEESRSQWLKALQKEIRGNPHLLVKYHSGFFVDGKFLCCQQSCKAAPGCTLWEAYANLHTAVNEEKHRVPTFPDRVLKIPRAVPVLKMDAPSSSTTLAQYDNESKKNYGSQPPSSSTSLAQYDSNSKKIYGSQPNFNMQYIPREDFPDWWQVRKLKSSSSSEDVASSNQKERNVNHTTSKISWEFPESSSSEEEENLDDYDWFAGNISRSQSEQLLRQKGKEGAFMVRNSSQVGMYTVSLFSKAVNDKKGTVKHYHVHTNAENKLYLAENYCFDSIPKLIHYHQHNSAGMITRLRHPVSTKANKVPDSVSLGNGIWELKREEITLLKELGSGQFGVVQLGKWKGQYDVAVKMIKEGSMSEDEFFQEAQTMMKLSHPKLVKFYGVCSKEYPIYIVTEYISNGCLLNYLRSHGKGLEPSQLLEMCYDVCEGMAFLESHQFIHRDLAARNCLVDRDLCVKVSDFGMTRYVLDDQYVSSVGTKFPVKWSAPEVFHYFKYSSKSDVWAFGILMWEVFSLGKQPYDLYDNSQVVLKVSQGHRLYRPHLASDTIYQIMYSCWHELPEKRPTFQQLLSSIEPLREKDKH

[8] = target: T8, Abl (Mus musculus, UniProt P00520); experiment: Kinase panel screen; type: biochemical; conditions: Compound I and ATP 10 μM
T8 construct: purchased Upstate USA or Invitrogen (commercial screening service)

[9] = target: T9, MAPK3 (Homo sapiens, UniProt P27361); experiment: Kinase panel screen; type: biochemical; conditions: Compound I at 1 μM and ATP at the apparent Km
T9 construct: purchased Upstate USA or Invitrogen (commercial screening service)
T9 sequence (P27361 whole entry): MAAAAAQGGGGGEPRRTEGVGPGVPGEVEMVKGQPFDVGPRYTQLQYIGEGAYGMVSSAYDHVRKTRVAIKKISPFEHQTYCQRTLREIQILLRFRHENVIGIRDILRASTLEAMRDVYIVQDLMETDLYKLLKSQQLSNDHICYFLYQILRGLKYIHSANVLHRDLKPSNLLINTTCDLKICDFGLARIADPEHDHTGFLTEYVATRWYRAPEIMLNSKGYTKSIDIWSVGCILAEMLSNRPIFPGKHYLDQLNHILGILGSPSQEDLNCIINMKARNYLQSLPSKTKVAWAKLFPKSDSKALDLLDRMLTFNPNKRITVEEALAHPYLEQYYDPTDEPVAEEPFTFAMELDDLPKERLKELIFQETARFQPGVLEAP

[10] = target: T10, TAK1 (Homo sapiens, UniProt O43318); experiment: Kinase panel screen; type: biochemical; conditions: Compound I and ATP 10 μM
T10 construct: purchased Upstate USA or Invitrogen (contract screening service)
T10 sequence (O43318 1-303 limits assumed): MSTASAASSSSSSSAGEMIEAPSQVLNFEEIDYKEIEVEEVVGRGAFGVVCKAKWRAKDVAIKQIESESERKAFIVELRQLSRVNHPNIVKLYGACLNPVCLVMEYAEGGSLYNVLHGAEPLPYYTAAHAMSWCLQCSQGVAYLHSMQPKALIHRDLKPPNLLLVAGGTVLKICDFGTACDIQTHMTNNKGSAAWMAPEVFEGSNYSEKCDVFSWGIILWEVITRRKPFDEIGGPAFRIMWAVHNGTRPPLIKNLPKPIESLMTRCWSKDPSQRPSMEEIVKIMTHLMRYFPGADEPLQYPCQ

[11] = target: T11, PKCpi (Homo sapiens, UniProt P05771); experiment: Kinase panel screen; type: biochemical; conditions: Compound I and ATP 10 μM
T11 construct: purchased Upstate USA or Invitrogen (commercial screening service)

[12] = target: T12, HIPK2 (Homo sapiens, UniProt Q9H2X6); experiment: Kinase panel screen; type: biochemical; conditions: Compound I and ATP 10 μM
T12 construct: purchased Upstate USA or Invitrogen (commercial screening service)

[13] = target: T13, FGFR3 (Homo sapiens, UniProt P22607); experiment: Kinase panel screen; type: biochemical; conditions: Compound I and ATP 10 μM
T13 construct: purchased Upstate USA or Invitrogen (contract screening service)

[14] = target: T14, MAPKAP-K3 (Homo sapiens, UniProt Q16644); experiment: Kinase panel screen; type: biochemical; conditions: Compound I and ATP 10 μM
T14 construct: purchased Upstate USA or Invitrogen (commercial screening service)

[15] = target: T15, IKKa (Homo sapiens, UniProt O15111); experiment: Kinase panel screen; type: biochemical; conditions: Compound I and ATP 10 μM
T15 construct: purchased Upstate USA or Invitrogen (commercial screening service)

[16] = target: T16, PKCs (Homo sapiens, UniProt Q02156); experiment: Kinase panel screen; type: biochemical; conditions: Compound I and ATP 10 μM
T16 construct: purchased Upstate USA or Invitrogen (commercial screening service)
T16 sequence (Q02156 whole entry): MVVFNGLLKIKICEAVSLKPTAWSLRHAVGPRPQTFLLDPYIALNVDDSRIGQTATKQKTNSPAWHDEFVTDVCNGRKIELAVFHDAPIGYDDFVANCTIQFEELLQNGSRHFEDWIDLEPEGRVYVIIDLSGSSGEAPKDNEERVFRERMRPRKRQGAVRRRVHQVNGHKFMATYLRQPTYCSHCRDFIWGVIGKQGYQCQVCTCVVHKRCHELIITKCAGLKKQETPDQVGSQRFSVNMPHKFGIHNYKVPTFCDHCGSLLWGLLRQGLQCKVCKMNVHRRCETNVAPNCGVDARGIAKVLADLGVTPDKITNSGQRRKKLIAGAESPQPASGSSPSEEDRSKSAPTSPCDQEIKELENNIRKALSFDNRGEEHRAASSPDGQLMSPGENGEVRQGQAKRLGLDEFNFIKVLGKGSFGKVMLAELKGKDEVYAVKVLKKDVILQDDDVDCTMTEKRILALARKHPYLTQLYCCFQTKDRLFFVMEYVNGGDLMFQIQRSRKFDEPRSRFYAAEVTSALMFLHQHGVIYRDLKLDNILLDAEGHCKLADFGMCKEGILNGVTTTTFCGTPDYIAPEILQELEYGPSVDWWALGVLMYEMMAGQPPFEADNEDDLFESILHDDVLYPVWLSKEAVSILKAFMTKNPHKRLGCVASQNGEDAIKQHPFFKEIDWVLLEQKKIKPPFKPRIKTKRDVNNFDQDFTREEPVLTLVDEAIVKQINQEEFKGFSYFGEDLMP

[17] = target: T17, PKCC, (Homo sapiens, UniProt Q05513); experiment: Kinase panel screen; type: biochemical; conditions: Compound I and ATP 10 μM
T17 construct: purchased Upstate USA or Invitrogen (commercial screening service)
T17 sequence (Q05513 whole entry): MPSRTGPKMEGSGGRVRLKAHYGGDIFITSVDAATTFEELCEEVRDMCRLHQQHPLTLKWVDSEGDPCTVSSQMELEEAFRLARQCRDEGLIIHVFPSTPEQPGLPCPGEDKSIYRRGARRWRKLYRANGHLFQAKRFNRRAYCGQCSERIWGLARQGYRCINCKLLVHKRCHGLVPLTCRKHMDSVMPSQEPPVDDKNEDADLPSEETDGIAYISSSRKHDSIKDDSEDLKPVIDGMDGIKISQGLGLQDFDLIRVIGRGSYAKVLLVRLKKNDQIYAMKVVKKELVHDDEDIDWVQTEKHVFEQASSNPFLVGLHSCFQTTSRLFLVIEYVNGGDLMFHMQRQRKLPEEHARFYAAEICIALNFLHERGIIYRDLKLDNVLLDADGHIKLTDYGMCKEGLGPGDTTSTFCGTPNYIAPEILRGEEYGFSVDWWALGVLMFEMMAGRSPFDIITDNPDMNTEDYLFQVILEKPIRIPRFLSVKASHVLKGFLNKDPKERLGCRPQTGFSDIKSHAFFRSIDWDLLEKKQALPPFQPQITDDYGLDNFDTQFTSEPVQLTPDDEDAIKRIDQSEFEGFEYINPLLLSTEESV

[18] = target: T18, TrkA (Homo sapiens, UniProt P04629); experiment: Kinase panel screen; type: biochemical; conditions: Compound I and ATP 10 μM
T18 construct: purchased Upstate USA or Invitrogen (contract screening service)

[19] = target: T19, IRAK4 (Homo sapiens, UniProt Q9NWZ3); experiment: Kinase panel screen; type: biochemical; conditions: Compound I and ATP 10 μM
T19 construct: purchased Upstate USA or Invitrogen (contract screening service)
T19 sequence (Q9NWZ3 whole entry): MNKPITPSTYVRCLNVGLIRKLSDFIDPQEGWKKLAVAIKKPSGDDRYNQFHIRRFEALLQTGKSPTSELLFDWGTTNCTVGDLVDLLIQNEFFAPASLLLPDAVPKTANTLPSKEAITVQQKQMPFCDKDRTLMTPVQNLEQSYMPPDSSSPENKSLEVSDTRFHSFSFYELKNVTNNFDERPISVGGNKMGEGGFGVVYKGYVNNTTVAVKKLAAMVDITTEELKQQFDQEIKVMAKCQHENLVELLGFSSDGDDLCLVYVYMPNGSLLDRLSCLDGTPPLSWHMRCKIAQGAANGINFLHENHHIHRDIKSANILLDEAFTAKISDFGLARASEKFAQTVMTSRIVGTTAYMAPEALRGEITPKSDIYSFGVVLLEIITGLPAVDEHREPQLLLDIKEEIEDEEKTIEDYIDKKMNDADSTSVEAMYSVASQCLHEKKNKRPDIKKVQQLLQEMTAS

[20] = tested on: ERK phosphorylation; experiment: VEGF-stimulated ERK phosphorylation in EC (Western blot); type: cell-based; conditions: 10 uM Compound I, EC with VEGF
Experimental: FIG. 3. Inhibition of cell proliferation and signaling. (a) EC were cultured in the presence of vehicle (DMSO) or PI3K inhibitors (all at 10 μM); cell proliferation was assessed either 24 (open bar), 48 (grey bar), or 72 h (black bar) later.
Western blots: Cell cultures were rinsed twice with PBS and then lysed using RIPA buffer (100 mM Tris, 150 mM NaCl, 2 mM CaCl2, 1% deoxycholic acid, 1% Triton X-100, 0.1% SDS, pH 7.5) containing PMSF (2 mM), NaF (500 mM), aprotinin (10 μg/ml), leupeptin (10 μg/ml) and vanadate (1 mM). Tissue samples were placed in ice-cold RIPA buffer and processed to lysates using a FastPrep homogenizer (QBiogene, Carlsbad, Calif.). Lysates were centrifuged at 15,000×g followed by assay for total protein using the bicinchoninic acid method (Pierce Biotechnology, Rockford, Ill.), then loaded at equal protein concentration onto gels for SDS-PAGE electrophoresis and Western blotting. For phosphorylated VE-cadherin detection blots were probed with primary antibody (Santa Cruz Biotechnology, Santa Cruz, Calif.) followed by a chemiluminescent detection system (Pierce Biotechnology). The same techniques were used to detect both phosphorylated and total ERK and Akt, except that primary antibodies were supplied by Cell Signaling Technology (Beverly, Mass.) and BD Biosciences (San Jose, Calif.), respectively.

[21] = target: T20, MEK2 (Homo sapiens, UniProt P36507); experiment: Kinase panel screen; type: biochemical; conditions: Compound I at 1 μM and ATP at the apparent Km
T20 construct: purchased Upstate USA or Invitrogen (commercial screening service)

[22] = target: T21, PKC0 (Homo sapiens, UniProt Q04759); experiment: Kinase panel screen; type: biochemical; conditions: Compound I and ATP 10 μM
T21 construct: purchased Upstate USA or Invitrogen (commercial screening service)

[23] = target: T22, PAK4 (Homo sapiens, UniProt O96013); experiment: Kinase panel screen; type: biochemical; conditions: Compound I and ATP 10 μM
T22 construct: purchased Upstate USA or Invitrogen (commercial screening service)

[24] = target: T23, PKBy (Homo sapiens, UniProt Q9Y243); experiment: Kinase panel screen; type: biochemical; conditions: read-out: Percent Control, PKBy
T23 construct: purchased Upstate USA or Invitrogen (contract screening service)

[25] = target: T24, ASK1 (Homo sapiens, UniProt Q99683); experiment: Kinase panel screen; type: biochemical; conditions: Compound I and ATP 10 μM
T24 construct: purchased Upstate USA or Invitrogen (contract screening service)

[26] = target: PKB 3 (Homo sapiens, UniProt P31751); experiment: Kinase panel screen; type: biochemical; conditions: read-out: Percent Control, PKB 3
[27] = target: T25, FGFR4 (Homo sapiens, UniProt P22455); experiment: Kinase panel screen; type: biochemical; conditions: Compound I and ATP 10 μM
T25 construct: purchased Upstate USA or Invitrogen (contract screening service)
T25 sequence (P22455 22-802): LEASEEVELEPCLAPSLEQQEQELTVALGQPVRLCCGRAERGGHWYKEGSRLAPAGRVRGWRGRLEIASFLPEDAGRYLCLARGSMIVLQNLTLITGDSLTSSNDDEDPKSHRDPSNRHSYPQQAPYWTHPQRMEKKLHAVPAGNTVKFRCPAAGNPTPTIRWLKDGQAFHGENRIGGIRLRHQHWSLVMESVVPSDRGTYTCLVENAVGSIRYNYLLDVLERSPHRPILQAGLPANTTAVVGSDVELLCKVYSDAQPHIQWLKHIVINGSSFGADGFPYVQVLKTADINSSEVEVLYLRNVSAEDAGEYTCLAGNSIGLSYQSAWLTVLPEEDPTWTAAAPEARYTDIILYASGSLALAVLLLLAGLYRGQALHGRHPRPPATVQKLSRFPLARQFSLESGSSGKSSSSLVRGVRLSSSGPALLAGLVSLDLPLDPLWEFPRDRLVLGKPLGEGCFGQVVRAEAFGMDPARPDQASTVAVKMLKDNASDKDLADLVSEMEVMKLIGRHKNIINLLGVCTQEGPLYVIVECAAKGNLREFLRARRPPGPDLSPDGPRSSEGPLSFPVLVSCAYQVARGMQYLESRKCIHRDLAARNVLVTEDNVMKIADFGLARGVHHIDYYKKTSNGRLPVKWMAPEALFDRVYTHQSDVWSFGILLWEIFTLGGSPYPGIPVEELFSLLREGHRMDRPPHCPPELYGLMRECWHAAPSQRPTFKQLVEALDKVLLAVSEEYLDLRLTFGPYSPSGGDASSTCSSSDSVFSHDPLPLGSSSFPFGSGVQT

[28] = target: T26, EphA4 (Homo sapiens, UniProt P54764); experiment: Kinase panel screen; type: biochemical; conditions: Compound I and ATP 10 μM
T26 construct: purchased Upstate USA or Invitrogen (commercial screening service)

[29] = target: T27, MAPK1 (Homo sapiens, UniProt P27361); experiment: Kinase panel screen; type: biochemical; conditions: Compound I and ATP 10 μM
T27 construct: purchased Upstate USA or Invitrogen (commercial screening service)
T27 sequence (P27361 2-379 limits assumed): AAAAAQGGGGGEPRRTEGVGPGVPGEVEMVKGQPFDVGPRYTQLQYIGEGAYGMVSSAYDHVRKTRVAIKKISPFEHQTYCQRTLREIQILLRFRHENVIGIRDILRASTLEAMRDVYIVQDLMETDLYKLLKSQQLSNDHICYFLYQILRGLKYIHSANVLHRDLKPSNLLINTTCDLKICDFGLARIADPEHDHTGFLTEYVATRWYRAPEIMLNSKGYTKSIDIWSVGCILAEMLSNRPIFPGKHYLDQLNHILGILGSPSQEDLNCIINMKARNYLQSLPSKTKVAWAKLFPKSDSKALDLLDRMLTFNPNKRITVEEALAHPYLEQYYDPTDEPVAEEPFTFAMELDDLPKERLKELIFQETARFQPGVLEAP

[30] = target: T28, ZAP-70 (Homo sapiens, UniProt P43403); experiment: Kinase panel screen; type: biochemical; conditions: Compound I and ATP 10 μM
T28 construct: purchased Upstate USA or Invitrogen (commercial screening service)

Which “Percent Control, cSrc” value [1] does the source give for Nc1nc(N)c2nc(-c3cccc(O)c3)c(-c3cccc(O)c3)nc2n1 [Compound I, 6,7-bis-(3-hydroxyphenyl)-pteridine-2,4-diamine] here?
The value was 53%.

And the “Percent Control, PAR-1Ba” value [2]?
Its value is 93%.

What about the “Percent Control, PKCy” value [3] of the same compound?
The value was 75%.

What about the “Percent Control, CDK5” value [4] of the same compound?
The value was 82%.

And the “Percent Control, PKCi” value [5]?
The value was 105%.

What about the “Percent Control, PKC8” value [6] of the same compound?
The value was 89%.

And the “Percent Control, Bmx” value [7]?
The value was 58%.

And the “Percent Control, Abl (m)” value [8]?
Its value is 66%.

What about the “Percent Control, MAPK3*” value [9] of the same compound?
Its value is 99%.

And the “Percent Control, TAK1” value [10]?
The value was 65%.

And the “Percent Control, PKCpi” value [11]?
Its value is 90%.

What about the “Percent Control, HIPK2” value [12] of the same compound?
The value was 87%.

And the “Percent Control, FGFR3” value [13]?
Its value is 66%.

And the “Percent Control, MAPKAP-K3” value [14]?
The value was 93%.

And the “Percent Control, IKKa” value [15]?
The value was 100%.

And the “Percent Control, PKCs” value [16]?
The value was 69%.

And the “Percent Control, PKCC,” value [17]?
Its value is 99%.

What about the “Percent Control, TrkA” value [18] of the same compound?
Its value is 57%.

What about the “Percent Control, IRAK4” value [19] of the same compound?
Its value is 89%.

What about the “VEGF-stimulated ERK phosphorylation” value [20] of the same compound?
Its value is “no influence”.

What about the “Percent Control, MEK2*” value [21] of the same compound?
The value was 94%.

And the “Percent Control, PKC0” value [22]?
Its value is 73%.

What about the “Percent Control, PAK4” value [23] of the same compound?
Its value is 78%.

What about the remaining activity at 10 µM [24] of the same compound?
The remaining activity at 10 µM was 98%.

What about the “Percent Control, ASK1” value [25] of the same compound?
The value was 105%.

And the remaining activity at 10 µM [26]?
Its remaining activity at 10 µM is 103%.

And the “Percent Control, FGFR4” value [27]?
Its value is 94%.

What about the “Percent Control, EphA4” value [28] of the same compound?
The value was 119%.

And the “Percent Control, MAPK1” value [29]?
The value was 97%.

And the “Percent Control, ZAP-70” value [30]?
Its value is 96%.

From US7691858B2, “Kinase inhibitors and methods of use thereof” (TargeGen, Inc., priority 2006, dated 2010)
